Laboratory results from patent US20200054653A1, “ACEFAPC FOR THE TREATMENT OF ACETYLCHOLINE-DEPENDENT DISEASES” (LIPTHER, priority 2017, published 2020).
Where two headings read alike, the source gives them in different places.

What was measured:
[1] = rat, cited from earlier work
[2] = test system: brain lesions after ischemic stroke; conditions: injected into rats after ischemic stroke; cited from earlier work
[3] = test system: reconstituted blood-brain barrier; conditions: compared with non-esterified DHA or PC-DHA; cited from earlier work
[4] = biological target: microbial (Streptomyces chromofuscus) phospholipase D (Streptomyces chromofuscus, UniProt Q8KRU5); assay: Acellular incubation of AceFaPC with phospholipase D, acetylcholine detected by mass spectrometry; format: biochemical; conditions: Tris-HCl pH 8, one hour at 37° C.
Procedure: Acellular incubation of AceFaPC was performed in the presence of a microbial (Streptomyces chromofuscus) phospholipase D in a Tris-HCl pH 8 (brain pH) buffer for one hour at 37° C. Following incubation, phospholipase D was destroyed by adding ethanol. After centrifugation, the aqueous ethanolic mixture was separated and evaporated to dryness. The residue was dissolved in the mixture 95% acetonitrile/5% ammonium formate and then filtered by centrifugation. Acetylcholine was detected in the solution by mass spectrometry. Acetylcholine was detected on the basis of both its molecular mass (146) and that of its main fragmentation product (87: majority ion corresponding to the radical CH3—COO—CH2—CH2—) (FIG. 2).
In these acellular experiments, two substrates were used considering the lowest unsaturation for acyl in the sn-2 position, namely the oleoyl radical (R2—COO—, FIG. 1): AceOIPC and the highest with the docosahexaenoyl radical: AceDoPC®. For AceOIPC, approximately 5% of the released choline was converted to acetylcholine. For AceDoPC®, this conversion reached 36%. The reasons for this difference are unknown at this stage of the experiment. […]

microbial (Streptomyces chromofuscus) phospholipase D, sequence (Q8KRU5 47-556): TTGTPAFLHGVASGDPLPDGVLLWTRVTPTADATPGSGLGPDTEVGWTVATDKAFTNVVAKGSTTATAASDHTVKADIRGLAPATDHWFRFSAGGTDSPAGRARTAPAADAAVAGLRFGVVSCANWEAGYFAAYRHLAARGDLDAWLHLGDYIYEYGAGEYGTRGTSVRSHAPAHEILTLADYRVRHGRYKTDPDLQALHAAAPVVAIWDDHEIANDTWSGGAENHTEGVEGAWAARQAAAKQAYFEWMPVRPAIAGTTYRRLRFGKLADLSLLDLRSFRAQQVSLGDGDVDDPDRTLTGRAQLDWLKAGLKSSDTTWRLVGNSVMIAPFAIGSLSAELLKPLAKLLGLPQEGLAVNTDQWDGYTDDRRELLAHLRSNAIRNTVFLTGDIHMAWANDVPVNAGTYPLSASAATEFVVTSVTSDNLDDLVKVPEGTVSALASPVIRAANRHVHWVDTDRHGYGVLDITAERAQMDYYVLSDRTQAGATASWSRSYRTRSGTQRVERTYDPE

Compound	radioactivity of AceDoPC in brain, % of the total injected ([1]; after 1 hour) [%]	radioactivity of AceDoPC in brain, % of the total injected ([1]; after 24 hours) [%]	radioactivity of AceDoPC in brain, % of the total injected ([1]; after 48 hours) [%]	spread of brain lesions [2]	passage of a reconstituted blood-brain barrier [3]	released choline converted to acetylcholine [4]
CC/C=C\C/C=C\C/C=C\C/C=C\C/C=C\C/C=C\CCC(=O)O[C@H](COC(C)=O)COP(=O)([O-])OCC[N+](C)(C)C [AceDoPC, 1-acetyl,2-docosahexaenoyl-phosphatidylcholine]	80	30	10	prevented the spread of brain lesions	promoted	36%
CCCCCCCCC=CCCCCCCCC(=O)OC(COC(C)=O)COP(=O)([O-])OCC[N+](C)(C)C (stereo not shown) [AceOIPC]	–	–	–	–	–	approximately 5%
